Usually Ki stands for the dissociation constant of the complex between target and ligand, obtained from inhibition or displacement. A low value points to tighter binding.

The target of this experiment is T1, human α-amino-β-carboxymuconate-ε-semialdehyde decarboxylase (ACMSD) (Homo sapiens, UniProt Q8TDX5).
T1 construct: recombinant hACMSD expressed in Pichia pastoris; homodimer
The experiment in a line: X-ray co-crystal structure at […] Å; Ki from coupled spectrophotometric assay (Dixon tight-binding competitive inhibition). The class given is biochemical.

T1 sequence (Q8TDX5 whole entry): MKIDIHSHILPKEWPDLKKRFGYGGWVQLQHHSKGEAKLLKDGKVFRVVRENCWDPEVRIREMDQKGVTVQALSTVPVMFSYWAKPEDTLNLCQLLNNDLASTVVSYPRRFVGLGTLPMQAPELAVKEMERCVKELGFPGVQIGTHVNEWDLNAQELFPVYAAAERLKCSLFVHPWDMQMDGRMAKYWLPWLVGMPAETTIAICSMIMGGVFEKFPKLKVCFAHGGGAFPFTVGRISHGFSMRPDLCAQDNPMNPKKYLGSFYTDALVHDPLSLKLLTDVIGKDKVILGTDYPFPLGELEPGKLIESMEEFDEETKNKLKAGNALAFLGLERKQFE

`N#Cc1c(-c2cccs2)nc(SCc2cccc(CC(=O)O)c2)[nH]c1=O` [compound 4, 2-[3-[(5-cyano-6-oxo-4-thiophen-2-yl-1H-pyrimidin-2-yl)sulfanylmethyl]phenyl]acetic acid] came in with an inhibition constant Ki of 0.85 ± 0.22 nM.
